Measured values published in ChEMBL document CHEMBL3351843, “Noncovalent fluorescent probes of human immuno- and constitutive proteasomes” (J Med Chem, 2014).
Activity calls are given as the source filed them. No cut-off for these calls is given here.

Tests used:
[1] = system: Proteasome; test: Inhibition of chymotrypsin-like activity of proteasome in HEK293 cells incubated for 1 hr by proteasome Glo cell-based chemiluminescent assay; details: Homo sapiens, HEK293, 1 h
[2] = Inhibition of PA activity of human inducible 20S immunoproteasome incubated for 15 mins before fluorogenic substrate addition
[3] = Cytotoxicity against HEK293 cells assessed as cell survival at 5 uM incubated for 1 hr by XTT assay; format: cell-based; details: human, read-out: Survival
[4] = Inhibition of trypsin-like activity of human inducible 20S immunoproteasome incubated for 15 mins before fluorogenic substrate addition
[5] = system: Proteasome; test: Inhibition of trypsin-like activity of proteasome in HEK293 cells incubated for 1 hr by proteasome Glo cell-based chemiluminescent assay; details: Homo sapiens, HEK293, 1 h
[6] = Inhibition of PA activity of human constitutive 20S proteasome incubated for 15 mins before fluorogenic substrate addition
[7] = Inhibition of chymotrypsin-like activity of human inducible 20S immunoproteasome incubated for 15 mins before fluorogenic substrate addition
[8] = system: Proteasome; test: Inhibition of PA activity of proteasome in HEK293 cells incubated for 1 hr by proteasome Glo cell-based chemiluminescent assay; details: Homo sapiens, HEK293, 1 h
[9] = system: HEK293; test: Drug uptake in HEK293 cells at 5 uM incubated for 1 hr by flow cytometry; format: ADME, cell-based; details: human, hek293, 1 h
[10] = Inhibition of trypsin-like activity of human constitutive 20S proteasome incubated for 15 mins before fluorogenic substrate addition
[11] = Inhibition of chymotrypsin-like activity of human constitutive 20S proteasome incubated for 15 mins before fluorogenic substrate addition
[12] = Drug uptake in nucleus of HEK293 cells at 5 uM incubated for 1 hr by DAPI staining based confocal microscopy; format: ADME, cell-based; details: human, hek293, 1 h
[13] = system: Proteasome; test: Reversible inhibition of trypsin-like activity of proteasome in HEK293 cells incubated for 1 hr by proteasome Glo cell-based chemiluminescent assay; details: Homo sapiens
[14] = system: Proteasome; test: Reversible inhibition of PA activity of proteasome in HEK293 cells incubated for 1 hr by proteasome Glo cell-based chemiluminescent assay; details: Homo sapiens
[15] = system: HEK293; test: Reversible inhibition of chymotrypsin-like activity of proteasome in HEK293 cells incubated for 1 hr by proteasome Glo cell-based chemiluminescent assay; details: Homo sapiens

SMILES	IC50 [1]	IC50 [2]	viability at 1 h, 5 µM [3]	IC50 [4]	IC50 [5]	IC50 [6]	IC50 [7]	IC50 [8]	Drug uptake [9]	IC50 [10]	IC50 [11]	Drug uptake [12]	inhibition [13]	inhibition [14]	inhibition [15]
C[C@H](NC(=O)[C@H](Cc1ccc(OCc2ccccc2)cc1)NC(=O)c1ccc(-c2c3ccc(=[N+](C)C)cc-3oc3cc(N(C)C)ccc23)c(C(=O)[O-])c1)C(=O)N[C@@H](C[C@]1(O)C(=O)Nc2ccccc21)C(=O)NCc1ccccc1	289 nM	830 nM	90.1%	3530 nM	2480 nM	1080 nM	420 nM	1120 nM	Active	1630 nM	430 nM	Active	–	–	–
C[C@H](NC(=O)[C@H](Cc1ccc(OCc2ccccc2)cc1)NC(=O)c1ccc(-c2c3ccc(=O)cc-3oc3cc(O)ccc23)c(C(=O)O)c1)C(=O)N[C@@H](C[C@]1(O)C(=O)Nc2ccccc21)C(=O)NCc1ccccc1	–	7060 nM	–	2430 nM	–	9520 nM	1490 nM	–	–	1930 nM	2590 nM	–	–	–	–
COC(=O)CCCCCNC(=O)c1ccc(-c2c3ccc(=[N+](C)C)cc-3oc3cc(N(C)C)ccc23)c(C(=O)[O-])c1	–	–	67.6%	–	–	–	–	–	Active	–	–	–	–	–	–
C[C@H](NC(=O)[C@H](Cc1ccc(OCc2ccccc2)cc1)NC(=O)OC(C)(C)C)C(=O)N[C@@H](C[C@]1(O)C(=O)Nc2ccccc21)C(=O)NCc1ccccc1	–	6160 nM	–	27700 nM	–	11500 nM	2530 nM	–	–	7100 nM	3200 nM	–	–	–	–
C[C@H](NC(=O)[C@H](Cc1ccc(OCc2ccccc2)cc1)NC(=O)CCCCCNC(=O)CCCCCNC(=O)CCCCCNC(=O)c1ccc(-c2c3ccc(=[N+](C)C)cc-3oc3cc(N(C)C)ccc23)c(C(=O)[O-])c1)C(=O)N[C@@H](C[C@]1(O)C(=O)Nc2ccccc21)C(=O)NCc1ccccc1	125 nM	740 nM	100%	1730 nM	515 nM	1370 nM	670 nM	596 nM	–	1280 nM	490 nM	Active	–	–	–
C[C@H](NC(=O)[C@H](Cc1ccc(OCc2ccccc2)cc1)NC(=O)CCCCCNC(=O)c1ccc(-c2c3ccc(=[N+](C)C)cc-3oc3cc(N(C)C)ccc23)c(C(=O)[O-])c1)C(=O)N[C@@H](C[C@]1(O)C(=O)Nc2ccccc21)C(=O)NCc1ccccc1	65 nM	640 nM	78.2%	1750 nM	521 nM	990 nM	560 nM	402 nM	–	1240 nM	480 nM	Active	Active	Active	Active
